The source of these data is ChEMBL document CHEMBL5696442, “Discovery of type II inhibitors of TGFβ-activated kinase 1 (TAK1) and mitogen-activated protein kinase kinase kinase kinase 2 (MAP4K2)” (J Med Chem, 2015).

The nature of test [1]: Inhibition of KHS1 Lys2 labeling site harbouring DIKGANILLTDHGDVK in human Huh-7 cells at 1 uM by KiNativ Profiling analysis relative to control. The note with it: condition cancer.
In test [2] the target is T1, Serine/threonine-protein kinase LATS2 (Homo sapiens) (UniProt Q9NRM7).
T1 sequence (whole entry): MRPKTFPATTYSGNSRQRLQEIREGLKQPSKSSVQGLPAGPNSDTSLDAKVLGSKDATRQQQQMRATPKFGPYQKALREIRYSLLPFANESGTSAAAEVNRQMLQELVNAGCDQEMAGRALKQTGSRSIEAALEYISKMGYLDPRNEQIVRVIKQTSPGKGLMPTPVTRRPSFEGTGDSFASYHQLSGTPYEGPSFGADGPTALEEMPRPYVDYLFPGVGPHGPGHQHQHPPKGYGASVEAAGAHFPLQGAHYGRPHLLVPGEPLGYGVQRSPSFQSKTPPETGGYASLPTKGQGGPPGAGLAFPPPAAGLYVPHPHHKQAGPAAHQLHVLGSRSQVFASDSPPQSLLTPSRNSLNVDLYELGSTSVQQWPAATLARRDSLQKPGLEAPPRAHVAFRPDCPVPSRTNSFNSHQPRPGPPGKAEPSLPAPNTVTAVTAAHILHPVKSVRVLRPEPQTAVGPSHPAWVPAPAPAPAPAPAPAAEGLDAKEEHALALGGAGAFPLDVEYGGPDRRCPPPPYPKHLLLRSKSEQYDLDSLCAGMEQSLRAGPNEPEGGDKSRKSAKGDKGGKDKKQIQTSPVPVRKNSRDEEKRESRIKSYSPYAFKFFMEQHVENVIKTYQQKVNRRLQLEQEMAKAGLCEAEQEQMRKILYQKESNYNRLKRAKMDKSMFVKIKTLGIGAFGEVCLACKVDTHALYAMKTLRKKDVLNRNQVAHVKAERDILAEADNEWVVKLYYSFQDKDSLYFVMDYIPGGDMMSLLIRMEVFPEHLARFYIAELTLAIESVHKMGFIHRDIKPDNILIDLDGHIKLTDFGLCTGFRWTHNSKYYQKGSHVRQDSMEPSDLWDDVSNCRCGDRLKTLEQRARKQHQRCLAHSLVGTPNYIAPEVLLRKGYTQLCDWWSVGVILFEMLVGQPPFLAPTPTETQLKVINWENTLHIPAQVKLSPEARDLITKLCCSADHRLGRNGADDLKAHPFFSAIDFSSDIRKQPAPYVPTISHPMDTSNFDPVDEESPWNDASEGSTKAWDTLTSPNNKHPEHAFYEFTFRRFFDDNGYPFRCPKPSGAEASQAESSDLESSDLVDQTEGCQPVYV
Description: Inhibition of LATS2 Lys1 labeling site in human Huh-7 cell lysate at 1 uM by KiNativ Profiling analysis relative to control. The test is classed as subcellular.

Test [3] concerns the target Casein kinase I isoform epsilon (Homo sapiens) (UniProt P49674). Description: Inhibition of CSNK1E (unknown origin) at 1 uM by Ambit Kinomescan binding assay relative to control.
The target of test [4] is T2, Phosphatidylinositol 5-phosphate 4-kinase type-2 gamma (Homo sapiens) (UniProt Q8TBX8).
T2 sequence (whole entry): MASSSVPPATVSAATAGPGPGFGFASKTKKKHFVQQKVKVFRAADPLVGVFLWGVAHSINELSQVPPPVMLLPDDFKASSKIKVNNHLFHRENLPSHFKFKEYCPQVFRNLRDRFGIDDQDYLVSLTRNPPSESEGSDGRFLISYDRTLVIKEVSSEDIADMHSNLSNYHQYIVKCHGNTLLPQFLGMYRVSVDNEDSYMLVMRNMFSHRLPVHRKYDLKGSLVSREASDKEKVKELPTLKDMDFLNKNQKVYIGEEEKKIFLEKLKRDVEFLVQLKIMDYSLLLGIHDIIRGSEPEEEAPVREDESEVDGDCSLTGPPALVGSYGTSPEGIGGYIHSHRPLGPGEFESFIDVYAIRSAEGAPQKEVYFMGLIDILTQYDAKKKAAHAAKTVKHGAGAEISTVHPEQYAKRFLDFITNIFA
Put plainly: Inhibition of PIP5K2C (unknown origin) at 1 uM by Ambit Kinomescan binding assay relative to control; values are per cent of control.

For test [5], the target named is Cyclin-dependent kinase-like 2 (Homo sapiens) (UniProt Q92772). Description: Inhibition of CDKL2 (unknown origin) at 10 uM by Ambit Kinomescan binding assay relative to control.
For test [6], the target named is Serine/threonine-protein kinase A-Raf (Homo sapiens) (UniProt P10398). Put plainly: Inhibition of ARAF Lys2 labeling site in human A-375 cells at 0.05 uM by KiNativ Profiling analysis relative to control. The test is classed as cell-based.
Serine/threonine-protein kinase A-Raf (Homo sapiens), sequence (P10398 whole entry): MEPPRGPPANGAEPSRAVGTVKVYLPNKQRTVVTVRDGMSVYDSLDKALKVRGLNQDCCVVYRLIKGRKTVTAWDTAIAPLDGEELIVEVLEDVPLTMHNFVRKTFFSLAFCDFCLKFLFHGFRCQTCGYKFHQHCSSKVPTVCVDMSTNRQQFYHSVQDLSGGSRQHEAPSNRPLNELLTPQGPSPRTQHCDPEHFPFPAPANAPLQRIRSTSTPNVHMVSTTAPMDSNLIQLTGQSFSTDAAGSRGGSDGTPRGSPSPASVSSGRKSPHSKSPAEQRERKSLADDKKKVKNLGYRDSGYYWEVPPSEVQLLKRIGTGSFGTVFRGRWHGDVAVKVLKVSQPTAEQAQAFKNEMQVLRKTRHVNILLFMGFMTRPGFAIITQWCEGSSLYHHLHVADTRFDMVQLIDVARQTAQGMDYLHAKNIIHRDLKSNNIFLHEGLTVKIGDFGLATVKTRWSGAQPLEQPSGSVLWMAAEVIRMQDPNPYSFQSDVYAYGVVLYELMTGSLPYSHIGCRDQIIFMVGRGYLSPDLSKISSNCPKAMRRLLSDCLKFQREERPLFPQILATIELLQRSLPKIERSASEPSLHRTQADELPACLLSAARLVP

Casein kinase I isoform epsilon (Homo sapiens), sequence (P49674 whole entry, looked up, canonical isoform): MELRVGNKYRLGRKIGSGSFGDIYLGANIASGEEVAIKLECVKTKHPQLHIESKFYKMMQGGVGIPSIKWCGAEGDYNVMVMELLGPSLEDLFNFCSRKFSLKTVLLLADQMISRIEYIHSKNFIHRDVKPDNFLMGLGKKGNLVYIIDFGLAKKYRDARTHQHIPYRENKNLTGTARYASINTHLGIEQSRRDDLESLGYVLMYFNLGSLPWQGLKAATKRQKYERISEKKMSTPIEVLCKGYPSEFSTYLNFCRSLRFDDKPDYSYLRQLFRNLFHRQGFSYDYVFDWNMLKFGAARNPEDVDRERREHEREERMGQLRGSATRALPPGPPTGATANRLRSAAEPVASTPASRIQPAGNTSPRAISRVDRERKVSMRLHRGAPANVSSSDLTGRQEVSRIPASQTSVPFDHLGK
Cyclin-dependent kinase-like 2 (Homo sapiens), sequence (Q92772 whole entry): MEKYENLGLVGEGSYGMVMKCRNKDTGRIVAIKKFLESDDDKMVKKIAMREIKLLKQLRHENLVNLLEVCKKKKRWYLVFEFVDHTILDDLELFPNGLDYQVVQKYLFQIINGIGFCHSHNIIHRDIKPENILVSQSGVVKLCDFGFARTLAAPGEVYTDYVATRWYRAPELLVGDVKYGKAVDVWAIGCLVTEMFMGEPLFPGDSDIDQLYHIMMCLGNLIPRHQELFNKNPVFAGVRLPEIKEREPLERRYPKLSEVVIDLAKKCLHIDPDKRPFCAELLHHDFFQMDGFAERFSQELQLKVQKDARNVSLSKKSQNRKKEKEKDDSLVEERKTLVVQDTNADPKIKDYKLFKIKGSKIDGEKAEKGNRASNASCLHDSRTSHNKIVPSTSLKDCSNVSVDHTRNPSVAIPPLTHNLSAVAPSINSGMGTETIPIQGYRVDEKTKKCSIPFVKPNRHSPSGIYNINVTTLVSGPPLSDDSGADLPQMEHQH

By inhibition is commonly meant the change of the read-out against control, counted positive when it falls. On to `CNc1cc(Oc2cc(C(=O)Nc3cc(N4CCN(C)CC4)cc(C(F)(F)F)c3)ccc2C)ncn1`, for which the inhibition at 1 µM in test [1] is -57.8%. Further, the inhibition in test [2] was -3.8%.
By residual activity is commonly meant what remains of the control signal, in per cent. Lower therefore signals a large loss of activity. Take `CCN1CCN(Cc2ccc(NC(=O)c3ccc(C)c(/C=C/c4cnc5[nH]ccc5c4OC)c3)cc2C(F)(F)F)CC1`: in test [3], the inhibition came out at 80%. Also, in test [4], the residual activity turned out to be 100%.
Turning to `CCN1CCN(Cc2ccc(NC(=O)c3ccc(C)c(Oc4ccnc5[nH]ccc45)c3)cc2C(F)(F)F)CC1`, the inhibition in test [5] is 0.9%; in test [6], 39.3%.
